pEC50: −log10 of the molar value.

The pEC50 is the EC50 on a negative log10 scale, so that one unit is a factor of ten.

The nature of this assay: Inhibition of NS5B RNA dependent RNA polymerase in HCV 1b Con1 infected in human Huh5-2 cells assessed as reduction in viral RNA replication measured after 3 days by luciferase reporter gene assay. (A reporter such as luciferase makes a cellular process visible.)
Regarding `COC[C@H]1C[C@@](CC(C)C)(C(=O)O)N(C(=O)c2ccc(C(C)(C)C)c(OC)c2)[C@H]1C(=O)OC`, the negative logarithm of the EC50 (pEC50) is 5.15. Regarding `COC[C@H]1C[C@@](CC(C)C)(C(=O)O)N(C(=O)c2ccc(C(C)(C)C)c(OC)c2)[C@H]1c1nccs1`, the pEC50 was 7.00.

With `CCOC(=O)c1csc([C@H]2[C@@H](COC)C[C@@](CC(C)C)(C(=O)O)N2C(=O)c2ccc(C(C)(C)C)c(OC)c2)n1`, the pEC50 was 4.22. Regarding `COC[C@H]1C[C@@](CC(C)C)(C(=O)O)N(C(=O)c2ccc(C(C)(C)C)c(OC)c2)[C@H]1[C@H]1COC(=O)O1`, the negative-log EC50 (pEC50) is 5.70. For `COC[C@H]1C[C@@](CC(C)C)(C(=O)O)N(C(=O)c2ccc(C(C)(C)C)c(OC)c2)[C@H]1C(N)=O` the value was 5.70; for `CC[C@H]1[C@@H](COC)C[C@@](CC(C)C)(C(=O)O)N1C(=O)c1ccc(C(C)(C)C)c(OC)c1`, 4.40; for `COC[C@H]1C[C@@](CC(C)C)(C(=O)O)N(C(=O)c2ccc(C(C)(C)C)c(OC)c2)[C@H]1COC(C)=O`, 4.52. Turning to `COC[C@H]1C[C@@](CC(C)C)(C(=O)O)N(C(=O)c2ccc(C(C)(C)C)c(OC)c2)[C@H]1CF`, the pEC50 was 4.35. Consider `COC[C@H]1C[C@@](CC(C)C)(C(=O)O)N(C(=O)c2ccc(C(C)(C)C)c(OC)c2)[C@H]1CNC(C)=O`, for which the pEC50 was 4.82.

For `COC[C@H]1C[C@@](CC(C)C)(C(=O)O)N(C(=O)c2ccc(C(C)(C)C)c(OC)c2)[C@H]1[C@H]1COC(C)(C)O1`, the pEC50 was 4.22. Take `COC[C@H]1C[C@@](CC(C)C)(C(=O)O)N(C(=O)c2ccc(C(C)(C)C)c(OC)c2)[C@@H]1c1nccs1`: the pEC50 is 4.82. As to `COC[C@H]1C[C@@](CC(C)C)(C(=O)O)N(C(=O)c2ccc(C(C)(C)C)c(OC)c2)[C@H]1COC`, the negative-log EC50 (pEC50) was 6.22. To `COC[C@H]1C[C@@](CC(C)C)(C(=O)O)N(C(=O)c2ccc(C(C)(C)C)c(OC)c2)[C@H]1CN=[N+]=[N-]` belongs 4.00; to `C=CCOC[C@H]1[C@@H](COC)C[C@@](CC(C)C)(C(=O)O)N1C(=O)c1ccc(C(C)(C)C)c(OC)c1`, 5.12.

As for `COC[C@H]1C[C@@](CC(C)C)(C(=O)O)N(C(=O)c2ccc(C(C)(C)C)c(OC)c2)[C@H]1COC(=O)OC`, the pEC50 is 4.52.

(Values after BindingDB's records for doi:10.1016/j.ejmech.2019.03.019 (Csic - Universidad De Zaragoza, 2019).)
